Experimental data as given in PubChem BioAssay (NCI).
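Compound exposure: 48 hours, 5 concentrations, 96-well plates. TGI marks complete inhibition of growth.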

Tests used:
Test in all cases: NCI tumour cell line growth inhibition, 48 h
HOP-18 NSCLC = tested on: HOP-18 NSCLC
SNB-19 CNS = tested on: SNB-19 CNS
NCI-H226 lung = tested on: NCI-H226 lung
SNB-78 CNS = tested on: SNB-78 CNS
HCT-15 colon = tested on: HCT-15 colon
NCI-H460 lung = tested on: NCI-H460 lung
OVCAR-3 ovarian = tested on: OVCAR-3 ovarian
DMS 114 small cell lung = tested on: DMS 114 small cell lung
786-0 renal = tested on: 786-0 renal
HOP-62 NSCLC = tested on: HOP-62 NSCLC
SW-620 colon = tested on: SW-620 colon
U251 CNS = tested on: U251 CNS
A549 NSCLC = tested on: A549 NSCLC
HT29 colon = tested on: HT29 colon
ACHN renal = tested on: ACHN renal
M19-MEL melanoma = tested on: M19-MEL melanoma
UACC-257 melanoma = tested on: UACC-257 melanoma
SN12C renal = tested on: SN12C renal
COLO 205 colon = tested on: COLO 205 colon
OVCAR-5 ovarian = tested on: OVCAR-5 ovarian
K-562 leukemia = tested on: K-562 leukemia
UO-31 renal = tested on: UO-31 renal
OVCAR-8 ovarian = tested on: OVCAR-8 ovarian
HCT-116 colon = tested on: HCT-116 colon
RXF 393 renal = tested on: RXF 393 renal
SNB-75 CNS = tested on: SNB-75 CNS
CAKI-1 renal = tested on: CAKI-1 renal
CCRF-CEM leukemia = tested on: CCRF-CEM leukemia
DLD-1 colon = tested on: DLD-1 colon
NCI-H23 lung = tested on: NCI-H23 lung
HOP-92 NSCLC = tested on: HOP-92 NSCLC
TK-10 renal = tested on: TK-10 renal
KM20L2 colon = tested on: KM20L2 colon
KM12 colon = tested on: KM12 colon
SR leukemia = tested on: SR leukemia
LXFL 529 NSCLC = tested on: LXFL 529 NSCLC
M14 melanoma = tested on: M14 melanoma
HCC-2998 colon = tested on: HCC-2998 colon
EKVX NSCLC = tested on: EKVX NSCLC
UACC-62 melanoma = tested on: UACC-62 melanoma
HL-60(TB) leukemia = tested on: HL-60(TB) leukemia
IGROV1 ovarian = tested on: IGROV1 ovarian
SK-OV-3 ovarian = tested on: SK-OV-3 ovarian
SF-539 CNS = tested on: SF-539 CNS
SF-295 CNS = tested on: SF-295 CNS
XF 498 CNS = tested on: XF 498 CNS
RXF-631 renal = tested on: RXF-631 renal
NCI-H522 lung = tested on: NCI-H522 lung
SK-MEL-2 melanoma = tested on: SK-MEL-2 melanoma
SF-268 CNS = tested on: SF-268 CNS
A498 renal = tested on: A498 renal
LOX IMVI melanoma = tested on: LOX IMVI melanoma
MALME-3M melanoma = tested on: MALME-3M melanoma
OVCAR-4 ovarian = tested on: OVCAR-4 ovarian
MOLT-4 leukemia = tested on: MOLT-4 leukemia
SK-MEL-5 melanoma = tested on: SK-MEL-5 melanoma
SK-MEL-28 melanoma = tested on: SK-MEL-28 melanoma

In the case of O=c1[nH]c(=O)n(C2OC(COP(=O)(O)OP(=O)(O)OC3OC(CO)C(O)C(O)C3O)C(O)C2O)cc1F (configuration not stated), the TGI (HOP-18 NSCLC) is reported as over 100 µM, the TGI (SNB-19 CNS) is reported as over 100 µM and the TGI (NCI-H226 lung) is reported as 2.72 µM. For the same molecule, the TGI (SNB-78 CNS) was over 100 µM, the TGI (HCT-15 colon) was 11.5 µM and the TGI (NCI-H460 lung) was 0.429 µM. It also gave a TGI (OVCAR-3 ovarian) of 4.73 µM, a TGI (DMS 114 small cell lung) of over 100 µM and a TGI (786-0 renal) of 2.68 µM. It also gave a TGI (HOP-62 NSCLC) of 4.3 µM, a TGI (SW-620 colon) of over 100 µM and a TGI (U251 CNS) of over 100 µM. It also gave a TGI (A549 NSCLC) of 8.56 µM, a TGI (HT29 colon) of over 100 µM and a TGI (ACHN renal) of 7.18 µM. It also gave a TGI (M19-MEL melanoma) of 59.4 µM, a TGI (UACC-257 melanoma) of 48.9 µM and a TGI (SN12C renal) of over 100 µM. The TGI (COLO 205 colon) was 7.14 µM, the TGI (OVCAR-5 ovarian) was 5.33 µM and the TGI (K-562 leukemia) was over 100 µM. For the same molecule, the TGI (UO-31 renal) was 2.29 µM, the TGI (OVCAR-8 ovarian) was over 100 µM and the TGI (HCT-116 colon) was 1.23 µM. For the same molecule, the TGI (RXF 393 renal) was 0.529 µM, the TGI (SNB-75 CNS) was over 100 µM and the TGI (CAKI-1 renal) was 18.3 µM. For the same molecule, the TGI (CCRF-CEM leukemia) was over 100 µM, the TGI (DLD-1 colon) was over 100 µM and the TGI (NCI-H23 lung) was over 31.5 µM. For the same molecule, the TGI (HOP-92 NSCLC) was 9.62 µM, the TGI (TK-10 renal) was 30.4 µM and the TGI (KM20L2 colon) was over 100 µM. The TGI (KM12 colon) was 10.7 µM, the TGI (SR leukemia) was over 21.6 µM and the TGI (LXFL 529 NSCLC) was over 100 µM. The TGI (M14 melanoma) was over 50.1 µM, the TGI (HCC-2998 colon) was over 100 µM and the TGI (EKVX NSCLC) was over 100 µM. For the same molecule, the TGI (UACC-62 melanoma) was 3.16 µM, the TGI (HL-60(TB) leukemia) was over 100 µM and the TGI (IGROV1 ovarian) was 6.26 µM. The TGI (SK-OV-3 ovarian) was over 87.5 µM, the TGI (SF-539 CNS) was 1.49 µM and the TGI (SF-295 CNS) was over 100 µM. The TGI (XF 498 CNS) was 16.1 µM, the TGI (RXF-631 renal) was over 100 µM and the TGI (NCI-H522 lung) was 7.75 µM. For the same molecule, the TGI (SK-MEL-2 melanoma) was over 91.3 µM, the TGI (SF-268 CNS) was over 100 µM and the TGI (A498 renal) was 7.43 µM. The TGI (LOX IMVI melanoma) was 4.13 µM, the TGI (MALME-3M melanoma) was 20.9 µM and the TGI (OVCAR-4 ovarian) was 7.25 µM. The TGI (MOLT-4 leukemia) was over 100 µM, the TGI (SK-MEL-5 melanoma) was 23.7 µM and the TGI (SK-MEL-28 melanoma) was over 100 µM.
